From patent US20090137652A1, “METHODS FOR NEUROPROTECTION” (priority 2005, published 2009)
Counter-ions that a name gives are not always drawn.

Experiments:
[1] = test system: transient cerebral ischemia middle cerebral artery occlusion (MCAO) rat model; assay: Transient cerebral ischemia middle cerebral artery occlusion (MCAO) rat model, infarct volume; assay type: in vivo; conditions: MK 801 3 mg/kg i.p., N 12
Procedure: The enantiomer of Formula 7 (test compound) was investigated in the transient cerebral ischemia middle cerebral artery occlusion (MCAO) rat model (as described in Nagasawa H. and Kogure K., Stroke, 1989, 20, 1037; and, Zea Longa E., Weinstein P. R., Carlson S, and Cummins R., Stroke, 1989, 20, 84) using male Wistar rats at 10 and 100 mg/kg (i.v.). MK 801 (Dizocilpine maleate; CAS Registry number 77086-22-7, a commercially available neuroprotectant compound) was used as a positive control (3 mg/kg, i.p.).
Rats (n=12) were randomly allocated to one of four experimental groups and were anesthetized. Blood flow from the internal carotid artery, anterior cerebral artery and posterior cerebral artery into the middle cerebral artery was blocked by this procedure. One hour after blockage, animals were treated over a 1 hour period with vehicle (administered i.v. over the one hour period), control (administered as a single i.p. dose at the start of the one hour period) and two doses of the enantiomer of Formula 7 (administered i.v. over the one hour period). Two hours after blockage, reperfusion was performed.
The animals were sacrificed and […] coronal sections of each brain were prepared. One in every forty sections (i.e. every […]) from the front to the occipital cortex was used to quantify the extent of the cerebral lesion. Slides were prepared using sections stained (according to the Nissl procedure) with cresyl violet and were examined under a light microscope.
Regional ischemic surface areas in the coronal sections of individual rats were determined according to the presence of cells with morphological changes. The areas of neuronal injury or infarction were measured and then added. The cortex and striatum volume were calculated for each animal (total ischemic surface area×0.8 mm (thickness)).
The mean volumes (.+−.S.E.M.) for each animal randomly assigned to the four experimental groups were compared using one-way ANOVA (one way ANOVA is a statistical method which compares 3 or more unmatched groups) followed by Dunnett's t-test (both methods incorporated in Statview 512+software, BarinPower, Calabasas, Calif., USA).

PC12 cells = assay: PC12 cell serum withdrawal model, MTS cell survival assay; assay type: cell-based
Text: Serum withdrawal is a cytotoxic environmental challenge that results in cell death in cultured cell lines as well as in primary cells of various tissue origins, including nerve cells. In particular, pheochromocytoma (PC) 12 cells have been widely employed as an in vitro neuronal cell model for a wide variety of neurodegenerative and cell death related disorders (Muriel, et al, Mitochondrial free calcium levels (Rhod-2 fluorescence) and ultrastructural alterations in neuronally differentiated PC12 cells during ceramide-dependent cell death, J. Comp. Neurol., 2000, 426(2), 297-315; Dermitzaki, et al, Opioids transiently prevent activation of apoptotic mechanisms following short periods of serum withdrawal, J. Neurochem., 2000, 74(3), 960-969; Carlile, et al, Reduced apoptosis after nerve growth factor and serum withdrawal: conversion of tetrameric glyceraldehyde-3-phosphate dehydrogenase to a dimer, Mol. Pharmacol., 2000, 57(1), 2-12). PC12 cells were cultured in sterile media (RPMI 1640) supplemented with 10% heat-inactivated horse serum and 5% fetal bovine serum (FBS). The culture medium also contained Penicillin-Streptomycin-Neomycin antibiotic (50 µg, 50 µg, 100 µg, respectively). Medium was exchanged every other day and the cells were passed in log phase near confluence.
The control cells were cultured in regular media without any treatment. An enantiomer of Formula 7 or Formula 8 (10 µM) was mixed well in the medium and then applied to the cells. For the 2 day assay, an enantiomer of Formula 7 or Formula 8 (10 µM) was only applied to the cells once at the time of serum withdrawal. For the 7 day assay, an enantiomer of Formula 7 or Formula 8 (10. mu.M) was applied to the cells at the time of serum withdrawal and every 48 hr thereafter when cells were changed with fresh new serum-free medium. In the serum withdrawal group, the cells were cultured in serum-free medium with no additional enantiomer of Formula 7 or Formula 8. Cell survival was determined by the 3-(4,5-dimethylthiazol-2-yl)-5-(3-[…])-2-(4-sulfophenyl)-2H-tetrazolium inner salt (MTS) assay at 2 or 7 days after serum withdrawal.
At the end of the experiment, cells were washed with fresh medium and incubated with MTS solution in a humidified 37° C. with 5% CO2 incubator for 1.5 hr. After the incubation period, the cells were immediately analyzed using a Softmax program (Molecular Devices). […] The assay is based on the cellular conversion of the tetrazolium salt, MTS, into a formazan that is soluble in tissue culture medium and measured directly at 490 nm in 96-well assay plates. The absorbance is directly proportional to the number of living cells in culture. The arbitrary absorbance reading in control cells is expressed as 100% survival rate.

## C[C@]12N[C@H](Cc3ccccc31)c1ccccc12 [MK 801, Dizocilpine maleate, reference compound]
[1]; vehicle 79.4
  Mean Infarct Volume ± S.E.M., Striatum: 56.1 ± 5.3^2 mm^3
[1]; vehicle 275.5
  Mean Infarct Volume ± S.E.M., Cortex: 95.8 ± 24.5^1 mm^3
[1]; vehicle 354.9
  Mean Infarct Volume ± S.E.M., Total Volume: 151.9 ± 28.7^1 mm^3

## NC(=O)OC[C@H](OC(N)=O)c1ccccc1Cl [Formula 8]
PC12 cells; 10 µM applied once at serum withdrawal, MTS assay 2 days after serum withdrawal, control 100, serum-free 49.6
  2 Day Survival Rate: 66.4 ± 5.4^1%
PC12 cells; 10 µM at serum withdrawal and every 48 hr, MTS assay 7 days after serum withdrawal, control 100, serum-free 23.8
  7 Day Survival Rate: 85.2 ± 0.6^2%
